According to patent publication US5270047A, “Local delivery of dipyridamole for the treatment of proliferative diseases” (priority 1991, dated 1993):

Tested on: Smooth muscle cells from rabbit aorta
Experiment: Effect of serum concentration on inhibition of PDGF-induced DNA synthesis (3H thymidine incorporation) by dipyridamole
Assay type: cell-based
Settings: for inhibition at 0.04 µg/mL / inhibition at 0.08 µg/mL / inhibition at 0.15 µg/mL / inhibition at 0.3 µg/mL / inhibition at 0.6 µg/mL / inhibition at 1.2 µg/mL / inhibition at 2.5 µg/mL: Oryctolagus cuniculus, 24 h, 40 ng/ml PDGF; for inhibition at 0.04 µg/mL: dipyridamole 0.04 μg/ml; for inhibition at 0.08 µg/mL: dipyridamole 0.08 μg/ml; for inhibition at 0.15 µg/mL: dipyridamole 0.15 μg/ml; for inhibition at 0.3 µg/mL: dipyridamole 0.3 μg/ml; for inhibition at 0.6 µg/mL: dipyridamole 0.6 μg/ml; for inhibition at 1.2 µg/mL: dipyridamole 1.2 μg/ml; for inhibition at 2.5 µg/mL: dipyridamole 2.5 μg/ml
Procedure: Serum reduces the effectiveness of systemically administered dipyridamole as an inhibitor of cell proliferation. […] Growth arrested, confluent cultures in 96 well microtiter plates were incubated in medium containing 1%, 5% or 20% serum (Hyclone Laboratories, Logan, Utah), 2 mM L-glutamine, 100 U/ml penicillin, 100 μg/ml streptomycin, 40 ng/ml PDGF (Genzyme, Cambridge, Mass.), 1 μci/ml ^3 H thymidine (DuPont, Boston, Mass.) and indicated concentrations of dipyridamole (Sigma Chemical, St. Louis, Mo.). Cells were incubated at 37° C. for 24 hours under 5% CO2 /95% air. At the end of 24 hours, cells were fixed in methanol and DNA synthesis was determined by ^3 H thymidine incorporation as described in Bonin et al., Exp. Cell Res. 181, 475-482 (1989).

## OCCN(CCO)c1nc(N2CCCCC2)c2nc(N(CCO)CCO)nc(N3CCCCC3)c2n1 [Dipyridamole, 2,6-bis(diethanolamino)-4,8-dipiperidinopyrimido[5,4-d]pyrimidine]
1%, 5% or 20% serum
  effect of serum on antiproliferative activity: increasing concentrations of serum attenuate the growth inhibitory effects of dipyridamole
1% serum
  inhibition at 0.04 µg/mL: 59%
  inhibition at 0.08 µg/mL: 70%
  inhibition at 0.15 µg/mL: 79%
  inhibition at 0.3 µg/mL: 80%
  inhibition at 0.6 µg/mL: 86%
  inhibition at 1.2 µg/mL: 90%
  inhibition at 2.5 µg/mL: 93%
5% serum
  inhibition at 0.04 µg/mL: 52%
  inhibition at 0.08 µg/mL: 53%
  inhibition at 0.15 µg/mL: 60%
  inhibition at 0.3 µg/mL: 71%
  inhibition at 0.6 µg/mL: 80%
  inhibition at 1.2 µg/mL: 87%
  inhibition at 2.5 µg/mL: 92%
20% serum
  inhibition at 0.04 µg/mL: 6%
  inhibition at 0.08 µg/mL: 0%
  inhibition at 0.15 µg/mL: 33%
  inhibition at 0.3 µg/mL: 38%
  inhibition at 0.6 µg/mL: 60%
  inhibition at 1.2 µg/mL: 74%
  inhibition at 2.5 µg/mL: 77%
